US9675712B2, “pH sensitive fluorescent polydiacetylene liposome and delivery vehicle comprising same” (priority 2012, dated 2017)

System: E. coli 0-157(ATCC 43894)
Assay: Anti-bacterial analysis of drug release in vitro (plaque / growth inhibition area on agar plate)
Assay type: cell-based
Details: dish (c): standard solution in PBS; 20 μl, 37° C. overnight
Procedure: In order to prepare an LB broth and an agar medium, 12.5 g of the LB broth and 7.5 g of the plant agar were transferred to 1 L sterile flask. The components were dissolved in 500 mL of distilled water or deionized water, and flask was tightly covered with an aluminum foil, a plug or a cap similar thereto. The mixture was heated until a boiling point was reached to dissolve the agar, and sterilized by autoclave at 121-124° C. for 15 mins, and then waited until the autoclave was cooled and a pressure was 0. The medium was removed from the autoclave and cooled to room temperature. When the LB agar was cooled to a temperature (approximately 45° C.) which is still considered hot by touch, 0.5 cm or ¼ layer of agar was poured into the Petri dish. It corresponds to approximately 20 to 25 mL volumes of the agar. The Petri dish was positioned on a flat surface until the agar was completely solidified for 30 to 40 mins. The Petri dish containing the solid agar was stored at 4° C.
300 μl of bacteria (E. coli) was added to 3.0 mL of the LB broth, and the culture fluid was strongly shaken. Then, the culture fluid was cultured in an incubator shaking the bacteria at 37° C. overnight. […]
First, a growth inhibition area (plaque) will be shown in the fusible bacterial habitat in the case in which the drug is smoothly released from the liposome. […] Third, the analysis method needs to be quantitative.

CC1(C)S[C@@H]2[C@H](NC(=O)[C@H](N)c3ccccc3)C(=O)N2[C@H]1C(=O)O [ampicillin standard solution, ampicillin]
growth inhibition area: growth inhibition area was generally observed
